One data set relates to HeLa cells. Briefly: MTS assay of PMA-treated HeLa cells with camptothecin-loaded MMP9-NANs. It is filed as cell-based. Conditions: HeLa cells treated with PMA for 21 h. As for the experimental part:
In order to test the correlation between enzyme expression level within a live cell and the ability of the pep-NANs to be degraded, an additional assay was run in which HeLa cells were treated with phorbol 12-myristate 13-acetate (PMA), a known inducer of MMP9 expression in HeLa cells. Cells were incubated in serum-free media and treated with MMP9-NANs carrying camptothecin, a known apoptotic cancer drug. The toxicity of the drug loaded MMP9-NANs was evaluated using an MTS assay post 21 h PMA treatment, allowing enough time for MMP9 expression.

The subject of a further data set is MCF-7 cells. Briefly: Confocal microscopy uptake of TYE-665 labeled DNAzyme in MCF-7 cells. The settings on record: 4 hours of incubation. It is filed as cell-based. As for the experimental part: FIG. 15 illustrates cellular uptake and targeted gene knockdown by DNAzyme-NANs in MCF-7 cells. (A) Confocal microscopy of free DNAzymes labeled with TYE-665 dye transfected into MCF-7 cells and monitored for evidence of cellular uptake post 4 hours of incubation. (B) Confocal microscopy of DNz-NANs incubated with cells without transfection agents in which the DNAzyme on the NAN was also labeled with TYE-665 dye. […] All scale bars are 20 μm. (C) GATA-3 mRNA knockdown in MCF-7 cells. 250 nM DNz-NAN is capable of knocking down mRNA by 60% compared to untreated cells (N=3, p=0.0016). […] Error bars represent the standard error of the mean (N=3). (D) MCF-7 cells treated with 250 nM DNz-NANs, monitored for GATA-3 mRNA levels via qRT-PCR at times ranging from 4 to 48 hours of incubation.
Targeted cleavage is only possible if the DNz-NAN can disassemble and the DNz-surfactants can escape the endosomal compartments of the cell post endocytosis. To study the suitability of the DNz-NAN for cellular uptake and stability of its DNAzyme ligands in the cell, the DNz-NANs were first incubated in 10% fetal bovine serum to mimic exposure to cellular nucleases. […] 1 μM Dye-DNz-NANs were incubated with MCF-7 cells for 4 hr and monitored for evidence of uptake using confocal microscopy (FIGS. 15A and 15B). […]

Data set [1] has as its system GATA-3 mRNA truncate. Briefly: Cleavage assay of mRNA truncate, polyacrylamide gel. It is filed as biochemical. The settings on record: 37° C., 4 h. As for the experimental part:
Cleavage Assay. To test the activity of the GATA-3 DNAzyme, both free DNAzyme and 5 μM of ligated NANs were incubated with 0.5 μM GATA-3 mRNA truncate, both in the presence and absence of salts (10 mM MgCl2 and 100 mM NaCl). The different reactions were then run on an 8% denaturing polyacrylamide gel at 350 V for 30 minutes. The gel was scanned using both a 473 nm laser and a 532 nm laser.

The test system of data set [2] is mRNA truncate within the Au NP lipoplex. Put plainly: mRNA cleavage across AuNP-templated lipid bilayer (synthetic lipoplex). It is filed as biochemical. The settings on record: equal concentrations of DNAzyme. The text has this: A synthetic lipoplex system was designed to help monitor mRNA cleavage across a lipid bilayer (FIG. 16A). This construct was built using a gold nanoparticle (Au NP) as it can support a simplified lipid bilayer system (FIG. 16B). At the Au NPs surface, both a thiolated DNA molecule and a thiolated PEG-DSPE molecule were assembled (1:2 ratio). The DNA at the surface serves as an anchoring site for the annealing of the 19mer mRNA truncate. For this assay, the same mRNA truncate that was utilized in the kinetics assay was used. Therefore, unless cleaved, the molecule should have limited fluorescence as it has both the BHQ quencher and FAM modifications. This construct was further encapsulated with DOPE, to form a bilayer around the AuNPs, a procedure previously disclosed (Shen et al. Nanoscale, 2016, 8, 14821-14835.) These particles were then subjected to either the free DNAzyme or DNAzyme-surfactants, and the extent of mRNA cleavage evaluated as a function of increases observed in overall fluorescence. To mimic more closely the DNz-surfactant that would results from the DNz-NANs post degradation by endosomal esterases, a modified surfactant which presented only two alkynes was synthesized, attached the DNA anchor to it, and ligated DNAzymes to the anchor to form a DNAzyme-surfactant conjugate. […] All conditions had equal concentrations of DNAzyme.

Data set [3] concerns GATA-3 mRNA truncate. Briefly: Kinetics cleavage assay (BHQ-mRNA fluorescence). The class given is biochemical. The settings on record: 10 nM DNAzyme, mRNA truncate 10-200 nM, 37° C. An excerpt:
Kinetics Cleavage Assay: To determine the kinetics of the cleavage of GATA-3 by both the free and NAN-bound DNAzyme, a fluorescence-based assay was developed. A mRNA truncate corresponding to the cleavable sequence in GATA-3 mRNA was purchased (BioSearch Technologies). The truncate, herein referred to as BHQ-mRNA, was functionalized with a quencher (BHQ1) at the 3′ end and a fluorescein derivative (FAM) at the 5′ end. […] All fluorescence measurements were taken using a Horiba Jobin Yvon fluorometer and, unless otherwise stated, all samples were excited at 470 nm and measurements taken from 485 nm to […]. Samples were heated to their stated temperature using a Cary single cell peltier accessory. A solution of MgCl2 (10 mM), NaCl (100 mM), DNAzyme (10 nM) and H2O was prepared in a total volume 400 μL. The DNAzyme solution was heated to 70° C. for ten minutes prior to mixing. The sample was cooled to and held at 37° C. in the fluorometer and an initial background reading was taken. BHQ mRNA (10 nM, BioSearch Technologies) was spiked into the sample and the fluorescence monitored over 20 minutes. Additional measurements were taken at 25, 50, 75, and 200 nM concentrations of mRNA. This same procedure was repeated for the DNAzyme-NAN (10 nM). […] All non-linear fits for assigning Vmax values were determined using Kaleidagraph 4.5 graphing software.

As for `CCCCCCCCCCCCCC(=O)O[C@@H]1[C@@H](C)[C@@]2(O)[C@@H](C=C(CO)C[C@]3(O)C(=O)C(C)=C[C@@H]23)[C@@H]2C(C)(C)[C@]12OC(C)=O` [PMA, phorbol 12-myristate 13-acetate], in the data set with HeLa cells, the “no toxicity up to” value was “up to 150 ng/mL”.

With “DNAzyme: GATA-3 targeting DNAzyme (hgd40), SEQ ID NO:2 (DNA GTGGATGGAGGCTAGCTACAACGAGTCTTGGAG; GATA-3 DNAzyme; misc_structure (1)..(1) monophosphorylated site)”, the “cellular uptake (TYE-665 signal)” value in the data set with MCF-7 cells is reported as “TYE signal could be observed in the perinuclear region of the cells”. Also, the “cleavage of truncated GATA-3 mRNA (gel)” value with GATA-3 mRNA truncate [1] is on record as “complete cleavage”. Further, the “access to and cleavage of mRNA truncate across lipid bilayer (fluorescence)” value in data set [2] is reported as “limited change in signal”. Further, in the data set on GATA-3 mRNA truncate [3], the Km was 0.059 µM.

(Values after patent US11786479B2, “Nucleic acid nanocapsules for drug delivery and targeted gene knockdown” (University of Connecticut, priority 2017, dated 2023).)
